Target: DLK kinase (N-terminally GST-tagged DLK, catalytic domain amino acid 1-520) (Homo sapiens (Human), UniProt Q12852)
Assay: DLK TR-FRET assay
Type: biochemical
Conditions: 30 μM ATP, MKK4 K131M substrate, read-out: DLK HTRF (Ki)
Protocol: DLK TR-FRET assay: DLK kinase reactions (20 μL) containing 5 nM N-terminally GST-tagged DLK (catalytic domain amino acid 1-520) (Carna Bioscience), 40 nM N-terminally HIS-tagged MKK4 K131M substrate, and 30 μM ATP in kinase reaction buffer (50 mM HEPES, pH 7.5, 0.01% Triton X-100, 0.01% Bovine γ-Globulins, 2 mM DTT, 10 mM MgCl2 and 1 mM EGTA), and testing compound 1:3 serial diluted starting at 20 uM were incubated at ambient temperature for 60 minutes in 384 well OptiPlate (Perkin Elmer). To quench kinase reactions and detect phosphorylated MKK4, 15 μL of TR-FRET antibody mixture containing 2 nM anti-phosphorylated MKK4 labeled with Europium cryptate (Cisbio) and 23 nM anti-HIS labeled with D2 (Cisbio) in detection buffer (25 mM Tris pH 7.5, 100 mM NaCl, 100 mM EDTA, 0.01% Tween-20, and 200 mM KF) was added to the reaction mixture. The detection mixture was incubated for 3 hours at ambient temperature and the TR-FRET was detected with an EnVision multilabel plate reader (Perkin-Elmer) using the LANCE/DELFIA Dual Enh label from Perkin-Elmer (excitation filter: UV2 (TRF) 320 and emission filters: APC 665 and Europium 615).

DLK kinase (N-terminally GST-tagged DLK, catalytic domain amino acid 1-520), sequence (Q12852 1-520): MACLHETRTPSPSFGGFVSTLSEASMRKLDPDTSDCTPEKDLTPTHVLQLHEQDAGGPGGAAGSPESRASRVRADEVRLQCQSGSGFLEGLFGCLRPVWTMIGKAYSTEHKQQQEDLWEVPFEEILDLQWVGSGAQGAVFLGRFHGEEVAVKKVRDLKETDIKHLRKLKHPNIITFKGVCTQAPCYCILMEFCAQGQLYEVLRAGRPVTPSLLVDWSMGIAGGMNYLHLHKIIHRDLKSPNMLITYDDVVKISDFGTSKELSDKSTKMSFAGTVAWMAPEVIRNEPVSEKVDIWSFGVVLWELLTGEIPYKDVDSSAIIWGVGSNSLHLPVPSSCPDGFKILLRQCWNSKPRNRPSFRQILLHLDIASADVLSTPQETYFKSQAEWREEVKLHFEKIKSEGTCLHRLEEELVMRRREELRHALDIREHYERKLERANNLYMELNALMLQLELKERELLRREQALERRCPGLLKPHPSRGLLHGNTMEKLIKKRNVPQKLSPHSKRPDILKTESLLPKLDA

`CN1CCC(c2cc(Nc3cc(C(F)(F)F)ccn3)nc(N3CC(C#N)C3)n2)C1` (centres unmarked) [Example 328, 1-[4-(1-Methyl-pyrrolidin-3-yl)-6-(4-trifluoromethyl-pyridin-2-ylamino)-pyrimidin-2-yl]-azetidine-3-carbonitrile] gave a Ki of 0.147 µM.

`CN1CCCC(c2cc(Nc3cc(C(F)(F)F)ccn3)nc(N3CC4CCC(C3)O4)n2)C1` (centres unmarked) [Example 329, [6-(1-Methyl-piperidin-3-yl)-2-(8-oxa-3-aza-bicyclo[3.2.1]oct-3-yl)-pyrimidin-4-yl]-(4-trifluoro-methyl-pyridin-2-yl)-amine] gave a Ki of 0.0701 µM.

Work on `C[C@@H]1CCCN1c1nc(Nc2cc(C(F)(F)F)ccn2)cc(C2CCN(S(C)(=O)=O)CC2)n1` [Example 330, [6-(1-Methanesulfonyl-piperidin-4-yl)-2-((R)-2-methyl-pyrrolidin-1-yl)-pyrimidin-4-yl]-(4-trifluoromethyl-pyridin-2-yl)-amine] yielded a Ki of 0.0318 µM.

Molecule `C[C@@H]1CCCN1c1nc(Nc2cc(C(F)(F)F)ccn2)cc(-c2ccc(=O)n(C)c2)n1` [Example 331, 1-Methyl-5-[2-((R)-2-methyl-pyrrolidin-1-yl)-6-(4-trifluoromethyl-pyridin-2-ylamino)-pyrimidin-4-yl]-1H-pyridin-2-one] has a Ki of 0.0184 µM.

Work on `CC1CCCN1c1nc(Nc2cc(C(F)(F)F)ccn2)cc(C2CCN(C)C(=O)C2)n1` (centres unmarked) [Example 332, 1-Methyl-4-[2-(2-methyl-pyrrolidin-1-yl)-6-(4-trifluoromethyl-pyridin-2-ylamino)-pyrimidin-4-yl]-piperidin-2-one] yielded a Ki of 0.00612 µM.

`CCC1CN(c2nc(Nc3cc(C(F)(F)F)ccn3)cc(C3CCN(C)C3)n2)CCO1` (centres unmarked) [Example 348, [2-(2-Ethyl-morpholin-4-yl)-6-(1-methyl-pyrrolidin-3-yl)-pyrimidin-4-yl]-(4-trifluoromethyl-pyridin-2-yl)-amine] gave a Ki of 0.0226 µM.

`CC(C)Oc1nc(Nc2cc(C(F)(F)F)ccn2)cc(C2CCOCC2)n1` [Example 350, [2-Isopropoxy-6-(tetrahydro-pyran-4-yl)-pyrimidin-4-yl]-(4-trifluoromethyl-pyridin-2-yl)-amine] was tested, and the Ki was 0.0475 µM.

`CC(=O)N1CC(c2cc(Nc3cc(C(F)(F)F)ccn3)nc(C3CC3)n2)C1` [Example 356, 1-{3-[2-Cyclopropyl-6-(4-trifluoromethyl-pyridin-2-ylamino)-pyrimidin-4-yl]-azetidin-1-yl}-ethanone] showed a Ki of 0.101 µM.

`CN1CCCC(c2cc(Nc3cc(C(F)(F)F)ccn3)nc(N3CC(N4CCOCC4)C3)n2)C1` (centres unmarked) [Example 371, [6-(1-Methyl-piperidin-3-yl)-2-(3-morpholin-4-yl-azetidin-1-yl)-pyrimidin-4-yl]-(4-trifluoromethyl-pyridin-2-yl)-amine] was tested, and the Ki was 0.636 µM.

Work on `O=C(C(F)F)N1CCC(c2cc(Nc3cc(C(F)(F)F)ccn3)nc(N3CC4CCC(C3)O4)n2)C1` (centres unmarked) [Example 373, 2,2-Difluoro-1-{3-[2-(8-oxa-3-aza-bicyclo[3.2. 1]oct-3-yl)-6-(4-trifluoro-methyl-pyridin-2-ylamino)-pyrimidin-4-yl]-pyrrolidin-1-yl}-ethanone] yielded a Ki of 0.173 µM.

`C[C@@H]1CCCN1c1nc(Nc2cc(C(F)(F)F)ccn2)cc(C2CN(S(C)(=O)=O)C2)n1` [Example 374, [6-(1-Methanesulfonyl-azetidin-3-yl)-2-((R)-2-methyl-pyrrolidin-1-yl)-pyrimidin-4-yl]-(4-trifluoromethyl-pyridin-2-yl)-amine] gave a Ki of 0.0306 µM.

`CC(=O)N1CC(c2cc(Nc3cc(C(F)(F)F)ccn3)nc(N3CCC[C@H]3C)n2)C1` [Example 375, 1-{3-[2-((R)-2-Methyl-pyrrolidin-1-yl)-6-(4-trifluoromethyl-pyridin-2-ylamino)-pyrimidin-4-yl]-azetidin-1-yl}-ethanone] showed a Ki of 0.0111 µM.

In the case of `CC1CCCN1c1nc(Nc2cc(C(F)(F)F)ccn2)cc(C2CCN(C(=O)c3cn(C)cn3)C2)n1` (centres unmarked) [Example 376, (1-Methyl-1H-imidazol-4-yl)-{3-[2-(2-methyl-pyrrolidin-1-yl)-6-(4-trifluoromethyl-pyridin-2-ylamino)-pyrimidin-4-yl]-pyrrolidin-1-yl}-methanone], the Ki is reported as 0.00172 µM.

Work on `CS(=O)(=O)N1CCCC(c2cc(Nc3cc(C(F)(F)F)ccn3)nc(C3CCCC3)n2)C1` (centres unmarked) [Example 385, [2-Cyclopentyl-6-(1-methanesulfonyl-piperidin-3-yl)-pyrimidin-4-yl]-(4-trifluoromethyl-pyridin-2-yl)-amine] yielded a Ki of 0.0368 µM.

`Cn1nccc1-c1nc(Nc2cc(C(F)(F)F)ccn2)cc(C2CCN(CC3CCOCC3)C2)n1` (centres unmarked) [Example 388, {2-(2-Methyl-2H-pyrazol-3-yl)-6-[1-(tetrahydro-pyran-4-ylmethyl)-pyrrolidin-3-yl]-pyrimidin-4-yl]-(4-trifluoromethyl-pyridin-2-yl)-amine] showed a Ki of 0.00875 µM.

Work on `FC(F)(F)c1ccnc(Nc2cc(C3CCCN(C4COC4)C3)nc(C3CCCC3)n2)c1` (centres unmarked) [Example 391, [2-Cyclopentyl-6-(1-oxetan-3-yl-piperidin-3-yl)-pyrimidin-4-yl]-(4-trifluoromethyl-pyridin-2-yl)-amine] yielded a Ki of 0.009 µM.

For `O=C1CC(c2cc(Nc3cc(C(F)(F)F)ccn3)nc(C3CCOC3)n2)CCN1` (centres unmarked) [Example 392, 4-[2-(Tetrahydro-furan-3-yl)-6-(4-trifluoromethyl-pyridin-2-ylamino)-pyrimidin-4-yl]-piperidin-2-one], the Ki was 0.12 µM.

With `CC(C)c1nc(Nc2cc(C(F)(F)F)ccn2)cc(C2CN(C3COC3)C2)n1` [Example 399, [2-Isopropyl-6-(1-oxetan 3-yl-azetidin-3-yl)-pyrimidin-4-yl]-(4-trifluoromethyl-pyridin-2-yl)-amine] the Ki was 0.281 µM.

`CS(=O)(=O)N1CCCC(c2cc(Nc3cc(C(F)(F)F)ccn3)nc(C3CCOC3)n2)C1` (centres unmarked) [Example 401, [6-(1-Methanesulfonyl-piperidin-3-yl)-2-(tetrahydro-furan-3-yl)-pyrimidin-4-yl]-(4-trifluoromethyl-pyridin-2-yl)-amine] showed a Ki of 0.122 µM.

`CC1CCCN1c1nc(Nc2cc(C(F)(F)F)ccn2)cc(C2CCN(C(=O)Cn3ccnc3)C2)n1` (centres unmarked) [Example 402, 2-Imidazol-1-yl-1-{3-[2-(2-methyl-pyrrolidin-1-yl)-6-(4-trifluoromethyl-pyridin-2-ylamino)-pyrimidin-4-yl]-pyrrolidin-1-yl}-ethanone] showed a Ki of 0.00159 µM.

For `FC1(F)CCN(c2nc(Nc3cc(C(F)(F)F)ccn3)cc(C3CCN(Cc4cn[nH]c4)C3)n2)C1` (centres unmarked) [Example 404, {2-(3,3-Difluoro-pyrrolidin-1-yl)-6-[1-(1H-pyrazol-4-ylmethyl)-pyrrolidin-3-yl]-pyrimidin-4-yl}-(4-trifluoromethyl-pyridin-2-yl)-amine], the Ki was 0.00492 µM.

For `FC(F)(F)c1ccnc(Nc2cc(C3CCCN(C4COC4)C3)nc(C3CCC3)n2)c1` (centres unmarked) [Example 407, [2-Cyclobutyl-6-(1-oxetan-3-yl-piperidin-3-yl)-pyrimidin-4-yl]-(4-trifluoro-methyl-pyridin-2-yl)-amine], the Ki was 0.026 µM.

For `CC(C)c1nc(Nc2cc(C(F)(F)F)ccn2)cc(C2CCNC(=O)C2)n1` (centres unmarked) [Example 408, 4-[2-Isopropyl-6-(4-trifluoro-methyl-pyridin-2-ylamino)-pyrimidin-4-yl]-piperidin-2-one], the Ki was 0.0978 µM.

`CC1CCCN1c1nc(Nc2cc(C(F)(F)F)ccn2)cc(C2CCNC(=O)C2)n1` (centres unmarked) [Example 412, 4-[2-(2-Methyl-pyrrolidin-1-yl)-6-(4-trifluoromethyl-pyridin-2-ylamino)-pyrimidin-4-yl]-piperidin-2-one] showed a Ki of 0.0475 µM.

`Cn1cc(-c2nc(Nc3cc(C(F)(F)F)ccn3)cc(C3CCN(CC4CCOCC4)C3)n2)cn1` (centres unmarked) [Example 423, {2-(1-Methyl-1H-pyrazol-4-yl)-6-[1-(tetrahydro-pyran-4-ylmethyl)-pyrrolidin-3-yl]-pyrimidin-4-yl}-(4-trifluoromethyl-pyridin-2-yl)-amine] showed a Ki of 0.00521 µM.

For `CC(=O)N1CCC(c2cc(Nc3cc(C(F)(F)F)ccn3)nc(-c3cnn(C)c3)n2)CC1` [Example 424, 1-{4-[2-(1-Methyl-1H-pyrazol-4-yl)-6-(4-trifluoromethyl-pyridin-2-ylamino)-pyrimidin-4-yl]-piperidin-1-yl}-ethanone], the Ki was 0.0124 µM.

With `COc1cc(C)ccc1C(=O)N1CCCC(c2cc(Nc3cc(C)ccn3)nc(N3CCCC3C)n2)C1` (centres unmarked) [Example 425, (2-Methoxy-4-methyl-phenyl)-{3-[6-(4-methyl-pyridin-2-ylamino)-2-(2-methyl-pyrrolidin-1-yl)-pyrimidin-4-yl]-piperidin-1-yl}-methanone] the Ki was 0.00017 µM.

For `COc1cc(C)ccc1C(=O)N1CCCC(c2cc(Nc3cc(C)ccn3)nc(N3CCC(F)(F)C3)n2)C1` (centres unmarked) [Example 426, {3-[2-(3,3-Difluoro-pyrrolidin-1-yl)-6-(4-methyl-pyridin-2-ylamino)-pyrimidin-4-yl]-piperidin-1-yl}-(2-methoxy-4-methyl-phenyl)-methanone], the Ki was 0.0005 µM.

With `FC1(F)CCN(c2nc(Nc3cc(Cl)ccn3)cc(C3CCN(C4COC4)CC3)n2)C1` [Example 427, N-(4-chloropyridin-2-yl)-2-(3,3-difluoropyrrolidin-1-yl)-6-(1-(oxetan-3-yl)piperidin-4-yl)pyrimidin-4-amine] the Ki was 0.016 µM.

Source: patent US9868720B2 (Genentech, Inc., priority 2013, dated 2018)
